For the experiment, the system named is PDE4 from human U-937 cells. Put plainly: PDE4 Inhibition Assay. The format is biochemical. The conditions noted are these: 1 μM cAMP, [3H]-cAMP, read-out: Potency Class (Inhibitory Concentration) in the PDE4 assay. As to the method:
PDE4 from human U-937 cells was used (see T. J. Torphy, et al., J. Pharmacol. Exp. Ther., 1992, 263, 1195-1205). Test compound at various concentration and/or vehicle was preincubated with 2 μg/ml enzyme in Tris-HCl buffer pH 7.5 for 15 minutes at 25° C. The reaction was initiated by addition of 1 1 μM cAMP and 0.01 1 μM [^3H]-cAMP for another 20 minute incubation period and terminated at 100° C. The resulting [^3H]-AMP was converted to [^3H]-adenosine by addition of snake venom nucleotidase and separated by AG1-X2 resin. An aliquot was removed and counted to determine the amount of [^3H]-adenosine formed. Results were converted to percent inhibition and IC so determined using XLfit from IDBS (ID Business Solutions Ltd., 2 Occam Court, Surrey Research Park, Guildford, Surrey, GU2 7QB UK).
Representative compounds of the present invention were tested and found to have significant PDE4 inhibition in this assay.

This note sets out measurements from patent US9624200B2, “Therapeutic piperazines” (DART NEUROSCIENCE (CAYMAN) LTD., priority 2006, dated 2017).

Some results are limits rather than exact numbers.

As to `COc1ccc(N2CCN(C(=O)C(C)C)[C@@H](Cc3ccccc3)C2)cc1OC1CCCC1` [Compound 243, (S)-1-(2-benzyl-4-(3-(cyclopentyloxy)-4-methoxyphenyl)piperazin-1-yl)-2-methylpropan-1-one], the IC50 was above 1 µM.
Turning to `CCc1nn(C2CCC2)c2cc(N3CCN(C(=O)Cc4ccccn4)[C@@H](Cc4ccccc4)C3)ccc12` [Compound 352, (S)-1-(2-benzyl-4-(1-cyclobutyl-3-ethyl-1H-indazol-6-yl)piperazin-1-yl)-2-(pyridin-2-yl)ethanone], the IC50 was above 1 µM.
For the molecule `COc1ccc(N2CCN(C(=O)Cn3ccnc3)[C@@H](Cc3ccccc3)C2)cc1OC1CCCC1` [Compound 290, (S)-1-(2-benzyl-4-(3-(cyclopentyloxy)-4-methoxyphenyl)piperazin-1-yl)-2-(1H-imidazol-1-yl)ethanone], the IC50 is above 1 µM.
Consider `Cc1n[nH]c(CC(=O)N2CCN(c3ccc(OC(F)F)c(OC(F)F)c3)C[C@@H]2Cc2ccccc2)n1` [Compound 332, (S)-1-(2-benzyl-4-(3,4-bis(difluoromethoxy)phenyl)piperazin-1-yl)-2-(3-methyl-1H-1,2,4-triazol-5-yl)ethanone], for which the IC50 is below 0.2 µM.
On to `COc1ccc(N2CCN(C(=O)Cc3n[nH]c(=O)[nH]3)[C@@H](Cc3ccccc3)C2)cc1OC1CCCC1` [Compound 293, (S)-3-(2-(2-benzyl-4-(3-(cyclopentyloxy)-4-methoxyphenyl)piperazin-1-yl)-2-oxoethyl)-1H-1,2,4-triazol-5(4H)-one], for which the IC50 is 0.2 to 1 µM.
With `NC(=O)CC(=O)N1CCN(c2ccc(OC(F)F)c(OC3CCC3)c2)C[C@@H]1Cc1ccccc1` [Compound 263, (S)-3-(2-benzyl-4-(3-cyclobutoxy-4-(difluoromethoxy)phenyl)piperazin-1-yl)-3-oxopropanamide], the IC50 was below 0.2 µM.
With `COc1ccc(N2CCN(C(=O)Cc3ccncc3)[C@@H](Cc3ccccc3)C2)cc1OC1CCCC1` [Compound 386, (S)-1-(2-benzyl-4-(3-(cyclopentyloxy)-4-methoxyphenyl)piperazin-1-yl)-2-(pyridin-4-yl)ethanone] the figure was above 1 µM; with `CCc1nn(C(C)C)c2cc(N3CCN(C(C)=O)[C@@H](Cc4ccccc4)C3)ccc12` [Compound 379, (S)-1-(2-benzyl-4-(3-ethyl-1-isopropyl-1H-indazol-6-yl)piperazin-1-yl)ethanone], above 1 µM.
Take `COc1ccc(N2CCN(C(=O)Cc3cc[nH]c3)[C@@H](Cc3ccccc3)C2)cc1OC1CCCC1` [Compound 307, (S)-1-(2-benzyl-4-(3-(cyclopentyloxy)-4-methoxyphenyl)piperazin-1-yl)-2-(1H-pyrrol-3-yl)ethanone]: the IC50 is below 0.2 µM.
With `COc1ccc(N2CCN(CCC(N)=O)[C@@H](Cc3ccccc3)C2)cc1OC1CCCC1` [Compound 269, (S)-3-(2-benzyl-4-(3-(cyclopentyloxy)-4-methoxyphenyl)piperazin-1-yl)propanamide] the figure was below 0.2 µM; with `COc1ccc(N2CCN(C(C)=O)[C@@H](Cc3cccc(C)c3)C2)cc1OC1CCCC1` [Compound 248, (S)-1-(4-(3-(cyclopentyloxy)-4-methoxyphenyl)-2-(3-methylbenzyl)piperazin-1-yl)ethanone], below 0.2 µM; with `CCC(=O)N1CCN(c2ccc(OC)c(OC3CCCC3)c2)C[C@@H]1Cc1ccccc1` [Compound 244, (S)-1-(2-benzyl-4-(3-(cyclopentyloxy)-4-methoxyphenyl)piperazin-1-yl)propan-1-one], 0.2 to 1 µM.
Consider `COc1ccc(N2CCN(C(=O)Cc3sc(C)nc3C)[C@@H](Cc3ccccc3)C2)cc1OC1CCCC1` [Compound 298, (S)-1-(2-benzyl-4-(3-(cyclopentyloxy)-4-methoxyphenyl)piperazin-1-yl)-2-(2,4-dimethylthiazol-5-yl)ethanone], for which the IC50 was above 1 µM.
As for `Cc1nc(CC(=O)N2CCN(c3ccc(OC(F)F)c(OCC4CC4)c3)C[C@@H]2CC(C)C)n[nH]1` [Compound 373, (S)-1-(4-(3-(cyclopropylmethoxy)-4-(difluoromethoxy)phenyl)-2-isobutylpiperazin-1-yl)-2-(5-methyl-1-H-1,2,4-triazol-3-yl)ethanone], the IC50 is below 0.2 µM.
Consider `COc1ccc(N2CCN(C(=O)[C@H]3CCC(=O)O3)[C@@H](Cc3ccccc3)C2)cc1OC1CCCC1` [Compound 296, (R)-5-((S)-2-benzyl-4-(3-(cyclopentyloxy)-4-methoxyphenyl)piperazine-1-carbonyl)dihydrofuran-2(3H)-one], for which the IC50 was above 1 µM.
In the case of `CCc1nn(C2CCC2)c2cc(N3CCN(CC(N)=O)[C@@H](Cc4ccccc4)C3)ccc12` [Compound 275, (S)-2-(2-benzyl-4-(1-cyclobutyl-3-ethyl-1H-indazol-6-yl)piperazin-1-yl)acetamide], the IC50 was above 1 µM.
Under `COc1ccc(N2CCN(C(=O)Cc3c[nH]cn3)[C@@H](Cc3ccccc3)C2)cc1OC(F)F` [Compound 347, (S)-1-(2-benzyl-4-(3-(difluoromethoxy)-4-methoxyphenyl)piperazin-1-yl)-2-(1H-imidazol-4-yl)ethanone] stands above 1 µM; under `CNCCC(=O)N1CCN(c2ccc(OC)c(OC3CCC3)c2)C[C@@H]1Cc1ccccc1` [Compound 348, (S)-1-(2-benzyl-4-(3-cyclobutoxy-4-methoxyphenyl)piperazin-1-yl)-3-(methylamino)propan-1-one], above 1 µM.
With `CCOC(=O)CC(=O)N1CCN(c2ccc(OC)c(OC3CCCC3)c2)C[C@@H]1CC(C)C` [Compound 368, (S)-ethyl 3-(4-(3-(cyclopentyloxy)-4-methoxyphenyl)-2-isobutylpiperazin-1-yl)-3-oxopropanoate] the figure was above 1 µM; with `COc1ccc(N2CCN(C(=O)CC(=O)O)[C@@H](Cc3ccccc3)C2)cc1OC1CCC1` [Compound 258, (S)-3-(2-benzyl-4-(3-cyclobutoxy-4-methoxyphenyl)piperazin-1-yl)-3-oxopropanoic acid], below 0.2 µM.
As for `COc1ccc(N2CCN(CC(N)=O)[C@@H](Cc3ccccc3)C2)cc1OC1CCC1` [Compound 268, (S)-2-(2-benzyl-4-(3-cyclobutoxy-4-methoxyphenyl)piperazin-1-yl)acetamide], the IC50 was below 0.2 µM.
As for `COc1ccc(N2CCN(C(=O)Cn3ccnc3C)[C@@H](Cc3ccccc3)C2)cc1OC1CCCC1` [Compound 289, (S)-1-(2-benzyl-4-(3-(cyclopentyloxy)-4-methoxyphenyl)piperazin-1-yl)-2-(2-methyl-1H-imidazol-1-yl)ethanone], the IC50 was above 1 µM.
Consider `COc1ccc(N2CCN(C(=O)Cc3ccccn3)[C@@H](Cc3ccccc3)C2)cc1OC1CCCC1` [Compound 384, (S)-1-(2-benzyl-4-(3-(cyclopentyloxy)-4-methoxyphenyl)piperazin-1-yl)-2-(pyridin-2-yl)ethanone], for which the IC50 was below 0.2 µM.
In the case of `COc1ccc(N2CCN(C(=O)Cc3c[nH]cn3)[C@@H](CC(C)C)C2)cc1OC1CCC1` [Compound 367, (S)-1-(4-(3-cyclobutoxy-4-methoxyphenyl)-2-isobutylpiperazin-1-yl)-2-(1H-imidazol-4-yl)ethanone], the IC50 is below 0.2 µM.
With `COc1ccc(N2CCN(C(=O)[C@@H]3CCC(=O)O3)[C@@H](Cc3ccccc3)C2)cc1OC1CCCC1` [Compound 295, (S)-5-((S)-2-benzyl-4-(3-(cyclopentyloxy)-4-methoxyphenyl)piperazine-1-carbonyl)dihydrofuran-2 (3H)-one] the figure was above 1 µM; with `CCc1nn(C2CCC2)c2cc(N3CCN(C(=O)Cc4ncccn4)[C@@H](Cc4ccccc4)C3)ccc12` [Compound 353, (S)-1-(2-benzyl-4-(1-cyclobutyl-3-ethyl-1H-indazol-6-yl)piperazin-1-yl)-2-(pyrimidin-2-yl)ethanone], above 1 µM.
With `CCOc1ccc(N2CCN(C(C)=O)[C@@H](Cn3cccn3)C2)cc1OC1CCCC1` [Compound 254] the figure was above 1 µM.
With `COc1ccc(N2CCN(C(=O)Cc3n[nH]c(C)n3)[C@@H](CN3CCCC3)C2)cc1OC1CCCC1` [Compound 255, (S)-1-(4-(3-(cyclopentyloxy)-4-methoxyphenyl)-2-(pyrrolidin-1-ylmethyl)piperazin-1-yl)-2-(5-methyl-1H-1,2,4-triazol-3-yl)ethanone], the IC50 was above 1 µM.
On to `COc1ccc(N2CCN(C(=O)Cc3ncc[nH]3)[C@@H](Cc3ccccc3)C2)cc1OC1CCCC1` [Compound 301, (S)-1-(2-benzyl-4-(3-(cyclopentyloxy)-4-methoxyphenyl)piperazin-1-yl)-2-(1H-imidazol-2-yl)ethanone], for which the IC50 was below 0.2 µM.
Consider `COc1ccc(N2CCN(C(=O)c3c[nH]cn3)[C@@H](Cc3ccccc3)C2)cc1OC1CCCC1` [Compound 241, (S)-(2-benzyl-4-(3-(cyclopentyloxy)-4-methoxyphenyl)piperazin-1-yl)(1H-imidazol-4-yl)methanone], for which the IC50 was 0.2 to 1 µM.
With `COc1ccc(N2CCN(C(=O)Cc3ccc[nH]3)[C@@H](Cc3ccccc3)C2)cc1OC1CCCC1` [Compound 306, (S)-1-(2-benzyl-4-(3-(cyclopentyloxy)-4-methoxyphenyl)piperazin-1-yl)-2-(1H-pyrrol-2-yl)ethanone], the IC50 lay within 0.2 to 1 µM.
Under `COc1ccc(N2CCN(C(=O)C3CNC(=O)N3)[C@@H](Cc3ccccc3)C2)cc1OC1CCCC1` (stereo partly drawn) [Compound 281, 4-((S)-2-benzyl-4-(3-(cyclopentyloxy)-4-methoxyphenyl)piperazine-1-carbonyl)imidazolidin-2-one] stands below 0.2 µM.
